Values quoted from earlier work, collected in patent US20060122162A1, “Methods of using temozolomide formulation intrathecally in the treatment of cancers” (Schering Corporation, priority 2004, published 2006).

For `Cn1nnc2c(C(N)=O)ncn2c1=O` [Temozolomide, 3,4-dihydro-3-methyl-4-oxoimidazo-[5,1-d]-1,2,3,4-tetrazin-8-carboximide], the “patients in whom clinical responses were achieved” value (advanced melanoma; patients having advanced melanoma, Newlands et al., Br J Cancer 1992) is listed as 17%, the “patients in whom a clinical response was achieved” value (advanced melanoma; patients with advanced melanoma, Bleehan et al., Journal of Clinical Oncology 1995) is listed as 21% and the solubility in water is listed as “water-insoluble”.
